# Reference: patent US20190389850A1, “COMPOUNDS” (GLAXOSMITHKLINE INTELLECTUAL PROPERTY DEVELOPMENT LIMITED, priority 2017, published 2019)
# Where “and” joins values, the source holds several entries; their conditions need not be identical. Identical values can stand only once.
# Biological target: T1, recombinant full length LRRK2 protein (LRRK2 Ser935 phosphorylation) (Homo sapiens, UniProt Q5S007)
# T1 construct: A BacMam virus expressing full length recombinant LRRK2 was purchased from Invitrogen; host or cells: SH-SY5Y human neuroblastoma cells transduced with BacMam LRRK2 virus
# Test: Recombinant cellular LRRK2 AlphaScreen assay
# Assay type: cell-based
# Conditions: SH-SY5Y cells over-expressing recombinant full length LRRK2, 60 minutes, read-out: pIC50 in the recombinant cellular LRRK2 AlphaScreen assay (converted)
# Source text: b. Recombinant Cellular LRRK2 AlphaScreen Assay
# To determine the activity of compounds against LRRK2 kinase activity in cells, the observed LRRK2 kinase-dependent modulation of LRRK2 Ser 935 phosphorylation (Dzamko et al., 2010, Biochem. J. 430: 405-413) was utilized to develop a quantitative 384 well plate-based immunoassay of LRRK2 Ser935 phosphorylation in the human neuroblastoma cell line SH-SY5Y, engineered to over-express recombinant full length LRRK2 protein.
# A BacMam virus expressing full length recombinant LRRK2 was purchased from Invitrogen and amplified by inoculation of SF-9 cells at MOI 0.3 for 4-5 days in Sf-900 III SFM medium supplemented with 3% fetal bovine serum. Infected cell cultures were then centrifuged at 2000 g for 20 minutes, viral supernatant titer determined by anti-gp64 plaque assay and stored at 4° C.
# Affinity-purified anti-phospho LRRK2 Ser935 sheep polyclonal antibody (Dzamko et al., 2010, Biochem. J. 430: 405-413) was biotinylated by standard methods (PerkinElmer). Anti-LRRK2 rabbit polyclonal antibody was purchased from Novus Biologicals. AlphaScreen Protein A IgG Kit (including acceptor and donor beads) was purchased from Perkin Elmer.
# SH-SY5Y cells were grown in DMEM/F12 medium with 10% dialysed fetal bovine serum and harvested by treatment with 0.5% trypsin-EDTA for 5 minutes at 37° C. followed by centrifugation at 1000 rpm for 4 minutes. The cell pellet was resuspended in Opti-MEM reduced serum media (Invitrogen) at 200,000 cells/ml and mixed with the BacMam LRRK2 virus at MOI=50. 50 μl cell solutions were then dispensed to each well of a 384-well plate and incubated at 37° C., 5% CO2 for 24 hours.
# Serial dilutions of test compounds were prepared in Opti-MEM reduced serum media (Invitrogen) and 5.6 ul transferred from compound plate to cell assay plate to achieve a top final assay concentration of 10 uM. DMSO was used in certain wells as controls. Cells were incubated at 37° C., 5% CO2 for 60 minutes. The medium was then removed and cells lysed by addition of 20 ul cell lysis buffer (Cell Signaling Technology) and incubation at 4° C. for 20 minutes. 10 ul of antibody/acceptor bead mix [(1/1000 biotinylated-pS935 LRRK2 antibody, 1/1000 total-LRRK2 antibody, 1/100 Acceptor beads in AlphaScreen detection buffer (25 mM Hepes (pH 7.4), 0.5% Triton X-100, 1 mg/ml Dextran 500 and 0.1% BSA)] was then added to each well and plates incubated for 2 hours at ambient temperature in the dark. 10 μl of donor beads solution (1/33.3 donor beads in AlphaScreen detection buffer) was then added to each well. Following incubation for a further 2 hours at ambient temperature in the dark, plates were read on an EnVision™ plate reader at emission 520-620 nm with excitation 680 nm. Dose response curve data was based on sigmoidal dose-response model.
# T1 sequence (Q5S007 whole entry): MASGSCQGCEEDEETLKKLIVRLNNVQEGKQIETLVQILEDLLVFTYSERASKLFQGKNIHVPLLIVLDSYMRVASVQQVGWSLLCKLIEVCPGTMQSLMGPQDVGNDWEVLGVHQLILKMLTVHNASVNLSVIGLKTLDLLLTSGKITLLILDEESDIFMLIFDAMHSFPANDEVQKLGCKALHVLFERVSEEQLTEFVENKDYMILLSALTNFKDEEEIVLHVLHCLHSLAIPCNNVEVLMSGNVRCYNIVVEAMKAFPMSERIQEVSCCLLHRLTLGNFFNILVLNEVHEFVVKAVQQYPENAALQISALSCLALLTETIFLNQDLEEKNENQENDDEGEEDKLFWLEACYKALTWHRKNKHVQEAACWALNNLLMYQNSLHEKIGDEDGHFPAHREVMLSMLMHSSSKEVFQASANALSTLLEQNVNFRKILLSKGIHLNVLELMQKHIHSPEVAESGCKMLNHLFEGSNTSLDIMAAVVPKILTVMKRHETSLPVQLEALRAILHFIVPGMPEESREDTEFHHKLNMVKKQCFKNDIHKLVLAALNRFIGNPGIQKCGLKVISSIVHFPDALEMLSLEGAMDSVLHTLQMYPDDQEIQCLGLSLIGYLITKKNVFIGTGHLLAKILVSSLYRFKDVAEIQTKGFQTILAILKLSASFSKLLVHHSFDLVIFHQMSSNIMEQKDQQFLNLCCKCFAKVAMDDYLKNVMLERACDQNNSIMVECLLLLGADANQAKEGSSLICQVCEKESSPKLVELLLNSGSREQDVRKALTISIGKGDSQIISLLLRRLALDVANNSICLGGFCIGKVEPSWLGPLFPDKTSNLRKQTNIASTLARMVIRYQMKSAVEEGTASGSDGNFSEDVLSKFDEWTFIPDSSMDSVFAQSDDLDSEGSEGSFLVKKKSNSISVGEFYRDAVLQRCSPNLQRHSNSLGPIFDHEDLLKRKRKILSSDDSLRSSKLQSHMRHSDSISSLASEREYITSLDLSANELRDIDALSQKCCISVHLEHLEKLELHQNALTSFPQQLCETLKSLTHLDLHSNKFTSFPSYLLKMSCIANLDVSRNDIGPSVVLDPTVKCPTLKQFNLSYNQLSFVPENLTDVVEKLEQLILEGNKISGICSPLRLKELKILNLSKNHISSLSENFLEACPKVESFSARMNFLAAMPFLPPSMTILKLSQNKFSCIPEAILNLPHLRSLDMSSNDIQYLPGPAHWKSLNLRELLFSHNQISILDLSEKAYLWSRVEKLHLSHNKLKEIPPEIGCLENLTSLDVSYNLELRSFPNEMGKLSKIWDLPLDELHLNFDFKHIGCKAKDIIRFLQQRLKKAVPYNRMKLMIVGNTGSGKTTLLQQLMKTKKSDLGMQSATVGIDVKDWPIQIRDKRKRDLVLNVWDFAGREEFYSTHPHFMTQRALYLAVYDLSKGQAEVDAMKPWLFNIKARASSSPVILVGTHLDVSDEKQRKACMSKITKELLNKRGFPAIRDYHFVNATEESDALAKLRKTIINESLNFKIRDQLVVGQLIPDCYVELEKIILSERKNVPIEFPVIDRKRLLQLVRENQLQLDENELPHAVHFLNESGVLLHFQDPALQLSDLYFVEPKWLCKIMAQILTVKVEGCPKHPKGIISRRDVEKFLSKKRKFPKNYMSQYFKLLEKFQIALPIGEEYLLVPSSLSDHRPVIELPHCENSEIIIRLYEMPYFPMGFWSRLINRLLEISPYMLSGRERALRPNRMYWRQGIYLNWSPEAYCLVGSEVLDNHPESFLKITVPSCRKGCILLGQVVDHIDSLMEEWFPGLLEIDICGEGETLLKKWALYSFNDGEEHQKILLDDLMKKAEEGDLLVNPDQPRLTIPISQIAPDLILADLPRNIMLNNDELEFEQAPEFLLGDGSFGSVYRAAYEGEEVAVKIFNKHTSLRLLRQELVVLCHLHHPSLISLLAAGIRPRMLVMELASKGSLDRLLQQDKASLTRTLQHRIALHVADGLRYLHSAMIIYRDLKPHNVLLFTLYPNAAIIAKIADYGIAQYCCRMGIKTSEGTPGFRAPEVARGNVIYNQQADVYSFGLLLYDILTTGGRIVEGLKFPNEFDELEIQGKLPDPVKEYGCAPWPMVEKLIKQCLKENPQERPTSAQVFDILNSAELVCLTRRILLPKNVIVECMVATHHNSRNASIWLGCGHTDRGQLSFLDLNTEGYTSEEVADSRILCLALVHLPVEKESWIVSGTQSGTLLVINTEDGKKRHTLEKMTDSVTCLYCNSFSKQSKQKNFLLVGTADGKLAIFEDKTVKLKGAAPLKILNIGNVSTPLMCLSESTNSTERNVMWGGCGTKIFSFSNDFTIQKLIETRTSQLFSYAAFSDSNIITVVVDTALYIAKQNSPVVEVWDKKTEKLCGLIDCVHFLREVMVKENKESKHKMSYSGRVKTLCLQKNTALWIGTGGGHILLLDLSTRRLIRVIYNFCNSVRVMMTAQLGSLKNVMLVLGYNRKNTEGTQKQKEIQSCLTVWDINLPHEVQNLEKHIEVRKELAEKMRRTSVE
row,SMILES,IC50
1,"Cc1nc(N2CC(C)OC(CO)C2)cc(-n2ncc3cc(C)c(C4CCN(C5COC5)CC4)cc32)n1 (single isomer, unassigned) [Example B-1, (6-Methyl-4-(2-methyl-6-(5-methyl-6-(1-(oxetan-3-yl)piperidin-4-yl)-1H-indazol-1-yl)pyrimidin-4-yl)morpholin-2-yl)methanol]",0.0501 µM
2,"Cc1nc(N2CC(C)OC(CO)C2)cc(-n2ncc3cc(C)c(C4CCN(C5COC5)CC4)cc32)n1 (single isomer, unassigned) [Example B-2, (6-Methyl-4-(2-methyl-6-(5-methyl-6-(1-(oxetan-3-yl)piperidin-4-yl)-1H-indazol-1-yl)pyrimidin-4-yl)morpholin-2-yl)methanol]",0.0794 µM
3,"Cc1nc(N2CC(C)OC(CO)C2)cc(-n2ncc3cc(C)c(C4CCN(C5COC5)CC4)cc32)n1 (single isomer, unassigned) [Example B-3, (6-Methyl-4-(2-methyl-6-(5-methyl-6-(1-(oxetan-3-yl)piperidin-4-yl)-1H-indazol-1-yl)pyrimidin-4-yl)morpholin-2-yl)methanol]",0.0501 µM
4,"Cc1nc(N2CC(C)OC(CO)C2)cc(-n2ncc3cc(C)c(C4CCN(C5COC5)CC4)cc32)n1 (single isomer, unassigned) [Example B-4, (6-Methyl-4-(2-methyl-6-(5-methyl-6-(1-(oxetan-3-yl)piperidin-4-yl)-1H-indazol-1-yl)pyrimidin-4-yl)morpholin-2-yl)methanol]",0.316 µM
5,"Cc1nc(N2CC(CO)OCC2C)cc(-n2ncc3cc(C)c(C4CCN(C5COC5)CC4)cc32)n1 (single isomer, unassigned) [Example B-6, (5-methyl-4-(2-methyl-6-(5-methyl-6-(1-(oxetan-3-yl)piperidin-4-yl)-1H-indazol-1-yl)pyrimidin-4-yl)morpholin-2-yl)methanol]",0.0631 µM
6,"Cc1nc(N2CCOC(CCO)C2)cc(-n2ncc3cc(C)c(C4CCN(C5COC5)CC4)cc32)n1 (single isomer, unassigned) [Example B-7, 2-(4-(2-methyl-6-(5-methyl-6-(1-(oxetan-3-yl)piperidin-4-yl)-1H-indazol-1-yl)pyrimidin-4-yl)morpholin-2-yl)ethanol]",0.0794 µM
7,"Cc1nc(N2CCOC(CCO)C2)cc(-n2ncc3cc(C)c(C4CCN(C5COC5)CC4)cc32)n1 (single isomer, unassigned) [Example B-8, 2-(4-(2-methyl-6-(5-methyl-6-(1-(oxetan-3-yl)piperidin-4-yl)-1H-indazol-1-yl)pyrimidin-4-yl)morpholin-2-yl)ethanol]",0.1 µM
8,"Cc1nc(N2CCO[C@@H](CO)C2)cc(-n2ncc3cc(C)c(C4CCN(C5(C)COC5)CC4)cc32)n1 [Example A-1, (R)-(4-(2-Methyl-6-(5-methyl-6-(1-(3-methyloxetan-3-yl)piperidin-4-yl)-1H-indazol-1-yl)pyrimidin-4-yl)morpholin-2-yl)methanol]",0.2 µM
9,"COc1nc(N2CCO[C@H](CO)C2)cc(-n2ncc3cc(C)c(C4CCN(C5(C)COC5)CC4)cc32)n1 [Example A-3, (S)-(4-(2-Methoxy-6-(5-methyl-6-(1-(3-methyloxetan-3-yl)piperidin-4-yl)-1H-indazol-1-yl)pyrimidin-4-yl)morpholin-2-yl)methanol]",≤ 0.0316 µM and 0.0126 µM
10,"COc1nc(N2CCO[C@@H](CO)C2)cc(-n2ncc3cc(C)c(C4CCN(C5(C)COC5)CC4)cc32)n1 [Example A-4, (R)-(4-(2-Methoxy-6-(5-methyl-6-(l-(3-methyloxetan-3-yl)piperidin-4-yl)-1H-indazol-1-yl)pyrimidin-4-yl)morpholin-2-yl)methanol]",≤ 0.0316 µM

# Biological target: T2, Full length G2019 human LRRK2 (Homo sapiens, UniProt Q5S007)
# T2 construct: purified recombinant Full length Flag-LRRK2; made in house; host or cells: HEK293 6E cells transduced with BacMam virus (virus made in Sf9)
# Test: Full length G2019 human LRRK2 Inhibition Mass Spectrometry assay
# Assay type: biochemical
# Conditions: LRRKtide to phospho-LRRKtide conversion, RapidFire mass spectrometry; 25 nM LRRK2, 2 mM ATP; read-out: pIC50 in the full length G2019 human LRRK2 Inhibition Mass Spectrometry assay (converted)
# Description: a. Full Length G2019 Human LRRK2 Inhibition Mass Spectrometry Assay
# This assay for Leucine Rich Repeat Kinase 2 (LRRK2) inhibition is based on the direct measurement of the peptide ‘LRRKtide’ (LRRKtide: RLGRDKYKT*LRQIRQ and “*” refers to the site of phosphorylation.) and phosphorylated ‘LRRKtide’ using a high throughput RapidFire mass spectrometry assay. Inhibitors are compounds that reduce the conversion of LRRKtide to phospho-LRRKtide.
# • 1) A 10 mM test compound was dissolved in 100% DMSO and serially diluted 1 in 4. 100 nL of this dilution series was then added to a 384 well, v bottom polypropylene plate, excluding columns 6 and 18. 100 nL of DMSO was added to columns 6 and 18 as controls wells. […] Test plates were then analysed on an Agilent RapidFire High Throughput solid phase extraction system coupled to AB Sciex API 4000 triple quadropole mass spectrometer with the following setting: RapidFire settings: • Sip Height=2 mm, Aspirate=500 ms, Load time=3000 ms, Elution time=3000 ms, Requilibration=500 ms. • Flow rates: pump 1=1.5 mL/min, pump 2 1.25 mL/min pump 3=0.8 mL/min Mass Spectrometer Settings: • LRRKtide Detection settings: Q1 mass 644.8 Da, Q3 mass 638.8, declustering potential 76 volts, collision energy 37 volts, CXP 34 volts. • Phospho-LRRKtide Detection settings: Q1 mass 671.4 Da, Q3 mass 638.8, Declustering potential 76 volts, Collision energy 37 volts, CXP 34 volts. • A C4 cartridge was used and running buffers were: A (aqueous) 0.1% formic acid in water B (organic) 0.1% formic acid, 80% acetonitrile, 20% water. • Collision gas: 12, Curtain gas: 25, Ion Source gas (1): 60, Ion Source gas (2): 60, Ion Spray Voltage: 5500, Temperature: 600, Interface Heater: ON. • Resolution Q1: low, Resolution Q3: low. • 6) Data was analysed using ActivityBase software (IDBS). A percent conversion from LRRKtide to Phospho-LRRKtide was calculated using the following formula: […]
# T2 sequence (Q5S007 with tags, fused parts or gaps R50H): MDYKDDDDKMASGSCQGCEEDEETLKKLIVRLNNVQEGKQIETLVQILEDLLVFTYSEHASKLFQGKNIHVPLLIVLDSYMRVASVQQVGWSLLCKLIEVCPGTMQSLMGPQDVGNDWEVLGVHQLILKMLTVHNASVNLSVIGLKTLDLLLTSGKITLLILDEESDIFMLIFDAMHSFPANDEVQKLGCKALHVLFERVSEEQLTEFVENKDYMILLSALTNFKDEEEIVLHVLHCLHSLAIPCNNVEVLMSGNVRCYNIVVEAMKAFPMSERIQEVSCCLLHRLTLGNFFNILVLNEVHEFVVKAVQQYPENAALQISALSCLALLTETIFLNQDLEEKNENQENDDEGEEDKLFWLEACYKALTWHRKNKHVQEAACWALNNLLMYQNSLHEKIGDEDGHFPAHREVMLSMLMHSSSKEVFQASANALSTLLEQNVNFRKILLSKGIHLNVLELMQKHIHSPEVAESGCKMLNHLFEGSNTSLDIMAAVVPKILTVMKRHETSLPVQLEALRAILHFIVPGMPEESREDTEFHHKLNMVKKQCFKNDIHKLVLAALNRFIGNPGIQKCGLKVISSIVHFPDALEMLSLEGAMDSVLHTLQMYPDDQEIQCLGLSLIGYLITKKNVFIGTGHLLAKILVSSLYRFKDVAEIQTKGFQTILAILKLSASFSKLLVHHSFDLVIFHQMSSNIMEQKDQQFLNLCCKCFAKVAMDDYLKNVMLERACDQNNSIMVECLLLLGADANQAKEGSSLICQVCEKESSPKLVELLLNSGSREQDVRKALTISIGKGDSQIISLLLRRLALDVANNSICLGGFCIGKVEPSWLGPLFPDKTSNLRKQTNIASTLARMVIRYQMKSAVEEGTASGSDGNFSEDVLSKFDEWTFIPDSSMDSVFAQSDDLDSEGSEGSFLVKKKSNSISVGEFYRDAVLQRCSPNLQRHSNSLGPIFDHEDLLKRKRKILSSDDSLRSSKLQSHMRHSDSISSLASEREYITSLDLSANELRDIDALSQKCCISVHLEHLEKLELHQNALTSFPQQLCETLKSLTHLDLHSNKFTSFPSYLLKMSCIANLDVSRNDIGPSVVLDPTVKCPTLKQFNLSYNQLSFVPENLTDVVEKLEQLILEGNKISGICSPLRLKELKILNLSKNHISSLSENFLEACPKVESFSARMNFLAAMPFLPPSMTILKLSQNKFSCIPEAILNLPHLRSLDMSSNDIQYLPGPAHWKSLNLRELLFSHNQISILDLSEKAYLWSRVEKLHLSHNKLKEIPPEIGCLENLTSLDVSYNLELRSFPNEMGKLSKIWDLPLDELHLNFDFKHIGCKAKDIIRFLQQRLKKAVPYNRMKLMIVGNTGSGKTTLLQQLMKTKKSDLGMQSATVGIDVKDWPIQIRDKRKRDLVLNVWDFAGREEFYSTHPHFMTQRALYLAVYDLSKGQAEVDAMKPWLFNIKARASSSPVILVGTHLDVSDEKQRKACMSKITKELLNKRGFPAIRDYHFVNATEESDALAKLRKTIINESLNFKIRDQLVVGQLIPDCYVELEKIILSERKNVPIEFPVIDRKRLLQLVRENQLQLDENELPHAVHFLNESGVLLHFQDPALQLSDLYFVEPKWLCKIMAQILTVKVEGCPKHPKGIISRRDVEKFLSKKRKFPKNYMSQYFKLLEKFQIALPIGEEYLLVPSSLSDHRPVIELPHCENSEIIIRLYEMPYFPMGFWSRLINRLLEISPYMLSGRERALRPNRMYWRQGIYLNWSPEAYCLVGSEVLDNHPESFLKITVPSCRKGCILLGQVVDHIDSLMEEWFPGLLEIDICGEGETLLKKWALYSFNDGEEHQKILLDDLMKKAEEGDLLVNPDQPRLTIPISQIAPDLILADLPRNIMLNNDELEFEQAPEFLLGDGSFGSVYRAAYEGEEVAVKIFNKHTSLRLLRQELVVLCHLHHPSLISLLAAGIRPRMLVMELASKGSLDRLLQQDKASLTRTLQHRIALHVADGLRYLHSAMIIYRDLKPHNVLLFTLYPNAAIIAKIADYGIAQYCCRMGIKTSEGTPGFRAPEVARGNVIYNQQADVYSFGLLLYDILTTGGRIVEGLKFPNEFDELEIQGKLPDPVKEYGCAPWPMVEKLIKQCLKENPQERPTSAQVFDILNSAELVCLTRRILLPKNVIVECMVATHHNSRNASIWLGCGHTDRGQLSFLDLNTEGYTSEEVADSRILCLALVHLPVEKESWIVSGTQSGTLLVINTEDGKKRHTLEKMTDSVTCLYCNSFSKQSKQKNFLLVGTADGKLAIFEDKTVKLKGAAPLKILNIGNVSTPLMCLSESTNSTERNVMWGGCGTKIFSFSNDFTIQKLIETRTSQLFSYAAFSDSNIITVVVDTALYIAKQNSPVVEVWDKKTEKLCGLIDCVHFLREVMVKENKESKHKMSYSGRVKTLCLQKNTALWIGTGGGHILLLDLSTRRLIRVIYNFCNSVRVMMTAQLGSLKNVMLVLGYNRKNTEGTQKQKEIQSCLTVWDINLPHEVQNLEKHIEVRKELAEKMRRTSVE
row,SMILES,IC50
1,"Cc1nc(N2CCOC(CCO)C2)cc(-n2ncc3cc(C)c(C4CCN(C5COC5)CC4)cc32)n1 (single isomer, unassigned) [Example B-7, 2-(4-(2-methyl-6-(5-methyl-6-(1-(oxetan-3-yl)piperidin-4-yl)-1H-indazol-1-yl)pyrimidin-4-yl)morpholin-2-yl)ethanol]",≤ 0.1 µM
2,"Cc1nc(N2CCO[C@@H](CO)C2)cc(-n2ncc3cc(C)c(C4CCN(C5(C)COC5)CC4)cc32)n1 [Example A-1, (R)-(4-(2-Methyl-6-(5-methyl-6-(1-(3-methyloxetan-3-yl)piperidin-4-yl)-1H-indazol-1-yl)pyrimidin-4-yl)morpholin-2-yl)methanol]",≤ 0.1 µM
3,"Cc1nc(N2CCO[C@H](CO)C2)cc(-n2ncc3cc(C)c(C4CCN(C5(C)COC5)CC4)cc32)n1 [Example A-2, (S)-(4-(2-Methyl-6-(5-methyl-6-(1-(3-methyloxetan-3-yl)piperidin-4-yl)-1H-indazol-1-yl)pyrimidin-4-yl)morpholin-2-yl)methanol]",≤ 0.1 µM
